Reference: publication PMC4036227 (Journal of medicinal chemistry, 2013)
Read-outs that look alike come from different tables or passages of the source.

Experiments:
[1] = biological target: T1, S31N mutant M2 proton channel (full length AM2 protein) (Influenza A virus, UniProt P0DOF5, S31N); settings: cited from earlier work
[2] = biological target: T1, S31N mutant M2 proton channel (full length AM2 protein); format: biochemical; settings: 100 µM
A/WSN/33-N31S (WT) virus = format: cell-based

pinanamine
S31N % inhibition (TEVC) [1]: 0%

COC(=O)[C@H](Cc1cnc[nH]1)NCC12CC3CC(CC(C3)C1)C2 [Compound 3]
S31N % inhibition (TEVC) [2]: 0%

Oc1ccc(CNC23CC4CC(CC(C4)C2)C3)c(O)c1 [Compound 44, 4-(adamantan-1-ylaminomethyl)-benzene-1,3-diol]
inhibition of plaque formation, WT virus (A/WSN/33-N31S (WT) virus): complete inhibition

NC12CC3CC(CC(C3)C1)C2 [Compound 1, amantadine]
S31N % inhibition (TEVC) [2]: 35 ± 2/ %

CC(N)C12CC3CC(CC(C3)C1)C2 (stereo not shown) [Compound 2, rimantadine]
S31N % inhibition (TEVC) [2]: 13%

c1ccc(CNC23CC4CC(CC(C4)C2)C3)nc1 [Compound 33]
S31N % inhibition (TEVC) [2]: 0%

C[C@@H]1[C@@H](/N=C/c2ccc(O)cc2)C[C@H]2C[C@@H]1C2(C)C [Compound 4]
S31N % inhibition (TEVC) [2]: 0%
